Consider ten molecules from patent publication US11207312B2, “Metallo-beta-lactamase inhibitors and methods of use thereof” (priority 2017, dated 2021).

In general, IC50 refers to the point on the concentration scale where inhibition reaches its midpoint.

Series [1] deals with Klebsiella pneumoniae expressing VIM-1 (IHMA599644). It is filed as cell-based. Conditions: with imipenem 1 μg/ml; 95% inhibition of bacterial growth. In short, it runs like this: (§1)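 MITC95 denotes the minimal test-compound level that, combined with 1 μg/ml imipenem, blocks 95% of bacterial growth, measured by absorbance. Overnight-grown clinical isolates were diluted 1:100 in CAMHB and incubated with both agents at 35° C for 22–24 h.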

Series [2] deals with Escherichia coli expressing NDM-1 (CLB30016). It is filed as cell-based. The conditions noted are these: with imipenem 1 μg/ml; 95% inhibition of bacterial growth. In short, it runs like this: as §1
Series [3] concerns Serratia marcescens expressing IMP-1 (CL5741). It is filed as cell-based. The conditions noted are these: with imipenem 1 μg/ml; 95% inhibition of bacterial growth. In a few lines:
as §1

Series [4] deals with P. aeruginosa MB9799 (efflux-, IMP-1 plasmid). It is filed as cell-based, Pseudomonas aeruginosa. Conditions: efflux − (MB9799) strain; imipenem at 2 μg/mL; in the presence of a class A, C, D serine β-lactamase inhibitor closely related to relebactam. In short, it runs like this: (§2)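 PAO1-derived isogenic pair (oprD+, inducible AmpC), efflux+ MB5919 or efflux− MB5890 parent, carrying an electroporated IMP-1 plasmid from a clinical isolate. Microbroth MIC with fixed imipenem and/or ceftazidime (usually CLSI breakpoint) plus fixed class A/C inhibitor; MBL inhibitor serially titrated, concentration restoring susceptibility recorded.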

Series [5] deals with P. aeruginosa MB9798 (efflux+, IMP-1 plasmid). Conditions: for MB9798 MITC95 P. aeruginosa uM Efflux WT: efflux + (MB9798) strain, imipenem at 2 μg/mL, in the presence of a class A, C, D serine β-lactamase inhibitor closely related to relebactam; for Efflux ratio: fold difference between efflux+ (MB9798) and efflux− (MB9799) strains. In short, it runs like this:
as §2

The next series deals with VIM-2 (Escherichia coli, UniProt Q5U7L7). Description: biochemical. The conditions noted are these: CCF2-FA fluorescence assay; read-out: VIM2 IC50.
The next series has as its target NDM-1 (Klebsiella pneumoniae, UniProt C7C422). The experiment in a line: biochemical. The conditions noted are these: CCF2-FA fluorescence assay, 2 hours at 25° C. It is filed as biochemical. In short, it runs like this:
(§3)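 Enzyme (NDM-1 1 pM, IMP-1 2 pM, VIM-1 30 pM final) and 1.25 μM CCF2-FA incubated with inhibitor (20 to 0.00063 μM) for 2 h at 25° C in 100 mM KH2PO4 pH 7, 0.005% Tween-20, 10 μM ZnSO4. Fluorescence read at ex 405/em 460 nm; IC50 by 4-parameter fit.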

In a further series the target is IMP-1 (Serratia marcescens, UniProt P52699). The experiment in a line: biochemical. The conditions noted are these: CCF2-FA fluorescence assay, 2 hours at 25° C.; read-out: IMP1 IC50. In short, it runs like this:
as §3

The next series addresses VIM-1 (Pseudomonas aeruginosa (strain ATCC 15692 / DSM 22644 / CIP 104116 / JCM 14847 / LMG 12228 / 1C / PRS 101 / PAO1), UniProt A0A0F7KYQ8). The experiment in a line: biochemical. Conditions: CCF2-FA fluorescence assay, 2 hours at 25° C.; read-out: VIM1 IC50. In short, it runs like this:
as §3

Sequence of NDM-1 (C7C422 whole entry, looked up, species assumed): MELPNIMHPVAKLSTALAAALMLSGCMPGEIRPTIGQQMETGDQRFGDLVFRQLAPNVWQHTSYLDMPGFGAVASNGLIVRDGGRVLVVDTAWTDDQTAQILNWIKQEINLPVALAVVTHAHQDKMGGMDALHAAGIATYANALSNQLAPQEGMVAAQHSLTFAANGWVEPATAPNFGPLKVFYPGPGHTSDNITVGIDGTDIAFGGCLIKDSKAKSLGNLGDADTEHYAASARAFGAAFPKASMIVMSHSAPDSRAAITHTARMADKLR
Sequence of IMP-1 (P52699 whole entry, looked up, species assumed): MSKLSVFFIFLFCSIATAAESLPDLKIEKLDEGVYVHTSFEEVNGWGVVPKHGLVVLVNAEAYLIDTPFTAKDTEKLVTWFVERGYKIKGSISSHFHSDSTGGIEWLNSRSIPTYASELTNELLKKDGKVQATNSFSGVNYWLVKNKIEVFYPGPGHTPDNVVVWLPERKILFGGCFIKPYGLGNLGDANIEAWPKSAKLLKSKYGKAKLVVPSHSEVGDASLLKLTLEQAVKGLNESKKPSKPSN

In the case of `NS(=O)(=O)c1c(S(=O)(=O)C2CNC2)ccc(N2CCN(CCO)CC2)c1-c1nnn[nH]1` [Example 54, 6-(azetidin-3-ylsulfonyl)-3-[4-(2-hydroxyethyl)piperazin-1-yl]-2-(1H-tetrazol-5-yl)benzenesulfonamide], in series [1], the “IHMA599644 K. pneumoniae MITC95 VIM” value was found to be 6.25 µM. Moreover, the “CLB30016 E. coli MITC95 NDM” value in [2] was 0.39 µM. In series [3], the “CL5741 S. marcescens MITC95 IMP” value was 0.39 µM. In addition, the “MB9799 MITC95 P. aeruginosa uM Efflux Mutant” value in [4] came to 1.56 µM. In addition, the “MB9798 MITC95 P. aeruginosa uM Efflux WT” value in [5] came to 6.25 µM. Besides, in series [5], the Efflux ratio is 4.00. The half-inhibitory concentration (IC50) at VIM-2 is 69.5 nM; at NDM-1, 16.7 nM; on IMP-1, 21.9 nM; at VIM-1 it was 66.1 nM.
In the case of `NS(=O)(=O)c1c(S(=O)(=O)C2CNC2)ccc(N2C[C@H](O)C[C@@H](O)C2)c1-c1nnn[nH]1` [Example 55, 6-(azetidin-3-ylsulfonyl)-3-[(3R,5R)-3,5-dihydroxypiperidin-1-yl]-2-(1H-tetrazol-5-yl)benzenesulfonamide], the “IHMA599644 K. pneumoniae MITC95 VIM” value in series [1] was found to be 12.50 µM. The “CLB30016 E. coli MITC95 NDM” value in series [2] came to 1.56 µM. The “CL5741 S. marcescens MITC95 IMP” value in series [3] was 12.50 µM. The “MB9799 MITC95 P. aeruginosa uM Efflux Mutant” value in series [4] turned out to be 6.25 µM. In addition, the “MB9798 MITC95 P. aeruginosa uM Efflux WT” value in [5] turned out to be 100.00 µM. In series [5], the Efflux ratio came out at 16.00. Also, the 50% inhibitory concentration (IC50) is 145 nM at VIM-2, 51.5 nM at NDM-1, 200 nM at IMP-1 and 62.3 nM on VIM-1.
On to `NS(=O)(=O)c1c(S(=O)(=O)C2CNC2)ccc(N2CCC(CCO)CC2)c1-c1nnn[nH]1` [Example 56, 6-(azetidin-3-ylsulfonyl)-3-[4-(2-hydroxyethyl)piperidin-1-yl]-2-(1H-tetrazol-5-yl)benzenesulfonamide], for which the “IHMA599644 K. pneumoniae MITC95 VIM” value in [1] came out at 6.25 µM. Also, the “CLB30016 E. coli MITC95 NDM” value in series [2] amounted to 6.25 µM. For the same molecule, the “CL5741 S. marcescens MITC95 IMP” value in series [3] turned out to be 3.13 µM. Besides, in series [4], the “MB9799 MITC95 P. aeruginosa uM Efflux Mutant” value came to 1.56 µM. The “MB9798 MITC95 P. aeruginosa uM Efflux WT” value in [5] is 6.25 µM. The Efflux ratio in series [5] stood at 4.00. The IC50 at VIM-2 is 0.82 nM; against NDM-1 it was 0.76 nM; on IMP-1, 0.45 nM; on VIM-1 it was 0.25 nM.
Turning to `NS(=O)(=O)c1c(S(=O)(=O)C2CNC2)ccc(N2CCCC(CO)C2)c1-c1nnn[nH]1` (stereo not shown) [Example 57, 6-(azetidin-3-ylsulfonyl)-3-[3-(hydroxymethyl)piperidin-1-yl]-2-(1H-tetrazol-5-yl)benzenesulfonamide], the “IHMA599644 K. pneumoniae MITC95 VIM” value in [1] came to 12.50 µM. Moreover, in series [2], the “CLB30016 E. coli MITC95 NDM” value worked out at 3.13 µM. In addition, in series [3], the “CL5741 S. marcescens MITC95 IMP” value was 3.13 µM. In addition, the “MB9799 MITC95 P. aeruginosa uM Efflux Mutant” value in [4] is 1.56 µM. In addition, the “MB9798 MITC95 P. aeruginosa uM Efflux WT” value in series [5] was 25.00 µM. In series [5], the Efflux ratio was determined as 15.99. Further, the IC50 at VIM-2 came out at 1.87 nM; against NDM-1 it was 2.48 nM; at IMP-1, 4.38 nM; at VIM-1, 1.44 nM.
Take `NS(=O)(=O)c1c(S(=O)(=O)C2CNC2)ccc(N2CCC(CO)CC2)c1-c1nnn[nH]1` [Example 58, 6-(azetidin-3-ylsulfonyl)-3-[4-(hydroxymethyl)piperidin-1-yl]-2-(1H-tetrazol-5-yl)benzenesulfonamide]: the “IHMA599644 K. pneumoniae MITC95 VIM” value in series [1] came to 6.25 µM. Besides, in series [2], the “CLB30016 E. coli MITC95 NDM” value is 3.13 µM. In addition, the “CL5741 S. marcescens MITC95 IMP” value in series [3] came out at 6.25 µM. Also, the “MB9799 MITC95 P. aeruginosa uM Efflux Mutant” value in series [4] is 1.56 µM. Moreover, in [5], the “MB9798 MITC95 P. aeruginosa uM Efflux WT” value is 6.25 µM. Further, in series [5], the Efflux ratio amounted to 4.00. Also, the IC50 at VIM-2 is 1.67 nM; on NDM-1 it was 1.03 nM; on IMP-1, 0.85 nM; at VIM-1 it was 0.42 nM.
In the case of `CC1(O)CCCN(c2ccc(S(=O)(=O)C3CNC3)c(S(N)(=O)=O)c2-c2nnn[nH]2)C1` (stereo not shown) [Example 59, 6-(azetidin-3-ylsulfonyl)-3-(3-hydroxy-3-methylpiperidin-1-yl)-2-(1H-tetrazol-5-yl)benzenesulfonamide], the “IHMA599644 K. pneumoniae MITC95 VIM” value in series [1] was determined as 6.25 µM. Further, in series [2], the “CLB30016 E. coli MITC95 NDM” value worked out at 6.25 µM. In addition, in series [3], the “CL5741 S. marcescens MITC95 IMP” value worked out at 6.25 µM. Moreover, in series [4], the “MB9799 MITC95 P. aeruginosa uM Efflux Mutant” value is 3.13 µM. Further, the “MB9798 MITC95 P. aeruginosa uM Efflux WT” value in series [5] was determined as 50.00 µM. Moreover, in series [5], the Efflux ratio was found to be 16.00. For the same molecule, the IC50 on VIM-2 worked out at 2.18 nM; on NDM-1 it was 3.22 nM; on IMP-1, 8.38 nM; on VIM-1, 1.84 nM.
As for `NS(=O)(=O)c1c(S(=O)(=O)C2CNC2)ccc(N2CCC[C@H](O)C2)c1-c1nnn[nH]1` [Example 60, 6-(azetidin-3-ylsulfonyl)-3-[(3S)-3-hydroxypiperidin-1-yl]-2-(1H-tetrazol-5-yl)benzenesulfonamide], the “IHMA599644 K. pneumoniae MITC95 VIM” value in series [1] was determined as 6.25 µM. Besides, in [2], the “CLB30016 E. coli MITC95 NDM” value came to 3.13 µM. Besides, the “CL5741 S. marcescens MITC95 IMP” value in series [3] turned out to be 3.13 µM. Further, the “MB9799 MITC95 P. aeruginosa uM Efflux Mutant” value in series [4] stood at 3.13 µM. Moreover, in [5], the “MB9798 MITC95 P. aeruginosa uM Efflux WT” value worked out at 12.50 µM. Moreover, the Efflux ratio in series [5] came to 4.00. In addition, the IC50 on VIM-2 was 2.67 nM; against NDM-1 it was 4.23 nM; at IMP-1 it was 6.05 nM; on VIM-1, 1.44 nM.
`NS(=O)(=O)c1c(S(=O)(=O)C2CNC2)ccc(N2CC[C@H](CO)[C@H](F)C2)c1-c1nnn[nH]1` [Example 61, 6-(azetidin-3-ylsulfonyl)-3-[(3S,4R)-3-fluoro-4-(hydroxymethyl)piperidin-1-yl]-2-(1H-tetrazol-5-yl)benzenesulfonamide]: the “IHMA599644 K. pneumoniae MITC95 VIM” value in [1] was determined as 6.25 µM. Also, in [2], the “CLB30016 E. coli MITC95 NDM” value was 1.56 µM. Moreover, the “CL5741 S. marcescens MITC95 IMP” value in series [3] was 3.13 µM. In series [4], the “MB9799 MITC95 P. aeruginosa uM Efflux Mutant” value is 1.56 µM. Besides, the “MB9798 MITC95 P. aeruginosa uM Efflux WT” value in series [5] stood at 6.25 µM. In addition, in series [5], the Efflux ratio is given as 4.00. The half-inhibitory concentration (IC50) was 2.12 nM at VIM-2, 0.9 nM against NDM-1, 1.28 nM on IMP-1 and 0.44 nM on VIM-1.
As to `NS(=O)(=O)c1c(S(=O)(=O)C2CNC2)ccc(N2CC3C(CO)C3C2)c1-c1nnn[nH]1` (stereo not shown) [Example 62, 6-(azetidin-3-ylsulfonyl)-3-[6-(hydroxymethyl)-3-azabicyclo[3.1.0]hex-3-yl]-2-(1H-tetrazol-5-yl)benzenesulfonamide], the “IHMA599644 K. pneumoniae MITC95 VIM” value in series [1] came to 6.25 µM. For the same molecule, the “CLB30016 E. coli MITC95 NDM” value in [2] was 1.56 µM. Further, the “CL5741 S. marcescens MITC95 IMP” value in series [3] was 3.13 µM. Also, in series [4], the “MB9799 MITC95 P. aeruginosa uM Efflux Mutant” value came to 1.56 µM. Besides, the “MB9798 MITC95 P. aeruginosa uM Efflux WT” value in series [5] amounted to 50.00 µM. In addition, the Efflux ratio in series [5] stood at 31.99. Moreover, the IC50 on VIM-2 is 10.5 nM; at NDM-1 it was 2.86 nM; on IMP-1 it was 4.89 nM; on VIM-1, 3.07 nM.
Take `NS(=O)(=O)c1c(S(=O)(=O)N[C@@H]2CCNC2)ccc(N2CCC(O)CC2)c1-c1nnn[nH]1` [Example 63, 4-(4-hydroxypiperidin-1-yl)-N1-[(3R)-pyrrolidin-3-yl]-3-(1H-tetrazol-5-yl)benzene-1,2-disulfonamide]: in series [1], the “IHMA599644 K. pneumoniae MITC95 VIM” value was 6.25 µM. For the same molecule, in [2], the “CLB30016 E. coli MITC95 NDM” value stood at 3.13 µM. The “CL5741 S. marcescens MITC95 IMP” value in series [3] is 3.13 µM. Further, the “MB9799 MITC95 P. aeruginosa uM Efflux Mutant” value in series [4] was determined as 1.56 µM. For the same molecule, the “MB9798 MITC95 P. aeruginosa uM Efflux WT” value in series [5] came to 1.56 µM. Also, the Efflux ratio in series [5] was 1.00. Besides, the half-maximal inhibitory concentration (IC50) was determined as 0.66 nM at VIM-2, 0.31 nM on NDM-1, 0.47 nM at IMP-1 and 0.16 nM at VIM-1.
